Laboratory results as given in patent US11628159B2, “Cell-protective compounds and their use” (ETH ZURICH, priority 2017, dated 2023).
Entries after “also recorded” stand apart in the source; their conditions may differ.

Key:
B6 mice with AAC [1] = assay: Chronic pressure overload (AAC) model of heart failure, oral treatment for 2 months; format: in vivo, mouse; conditions: for left ventricular ejection fraction: B6 mice, oral 2 months, Compound-1 3 mg/kg/d, Compound-4 5 mg/kg/d, untreated AAC 28.6%±3.5%, ±s.d., n=5
Protocol: A, The left ventricular ejection fraction was determined in 6 month-old male B6 mice with chronic pressure overload imposed by 3 months of AAC and oral treatment with Compound-1 (AAC+compd-1) and Compound-4 (AAC+compd-4) relative to untreated AAC controls. Treatment was started one month after AAC induction and was continued for 2 months. Only mice with heart failure (ejection fraction <34% after one month of AAC) were included in the study (±s.d., n=5/group, ***p=0.0006, **p=0.0051 vs. untreated AAC; Dunnett's multiple comparison test).
We investigated whether the new small molecule GRK2 inhibitors, Compound-1 (1-(1,3-benzodioxol-5-yl)-4-(cyclopropanecarbonyl)-3-hydroxy-2-phenyl-2H-pyrrol-5-one)) and Compound-4 (4-(1,3-benzodioxol-5-yl)pyrimidine) could retard symptoms of heart failure in a chronic pressure overload model of heart failure imposed by abdominal aortic constriction (AAC). Compound-1 (3 mg/kg/d) and Compound-4 (5 mg/kg/d) were applied orally in the AAC-induced model of heart failure. Oral treatment with Compound-1 and Compound-4 was initiated in B6 mice with symptoms of heart failure (left ventricular ejection fraction <34%) induced by four weeks of AAC.
Chronic pressure overload imposed by abdominal aortic constriction (AAC) was used as an experimental model to induce cardiac hypertrophy and signs of heart failure. Aortic constriction of the abdominal aorta was performed in tribromoethanol-anesthetized 8-12 week-old transgenic mice or non-transgenic B6 controls as described (AbdAlla S, et al., Cardiovasc. Hematological Agents Med. Chem. 9, 190-206 (2011)). The abdominal aorta was constricted above the suprarenal artery by tying a 7-0 silk suture ligature against a blunt 26-gauge needle. Age-matched controls underwent identical surgical procedure except for ligation of the aorta (sham-operated mice).

[2] = tested on: GRK2-mediated phosphorylation of SRSF1/Srsf1; assay: Immunoblot of SRSF1/Srsf1 phosphorylation in isolated neonatal cardiomyocytes from Tg-SRSF1 mice; format: cell-based, mouse; conditions: 10 microM, 60 h, relative to vehicle
Protocol: (§1) A, The GRK2-mediated phosphorylation of SRSF1/Srsf1 was determined by immunoblot in lysates from isolated neonatal cardiomyocytes from Tg-SRSF1 mice after incubation for 60 h with 10 microM of paroxetine, 1-(1,3-benzodioxol-5-yl)-4-(cyclopropane-carbonyl)-3-hydroxy-2-phenyl-2H-pyrrol-5-one (“Compound-1”) or 4-(1,3-benzodioxol-5-yl)pyrimidine (“Compound-4”) relative to vehicle-treated control (“C”) cardiomyocytes. B, Immunoblot detection of GRK2-mediated phosphorylation of SRSF1 (pSRSF1) was performed with lysates from HEK (human embryonic kidney) cells incubated for 60 h with 10 microM of 4-(1,3-benzodioxol-5-yl)pyrimidine (“Compound-4”), 1-(1,3-benzodioxol-5-ylmethyl)-5-(4-chlorophenyl)-2-methyl-pyrrole-3-carboxamide (“Compound-24”) or (4R)-N3-(1,3-benzodioxol-5-ylmethyl)-N4-[[3-(trifluoromethyl)phenyl]-methyl]pyrrolidine-3,4-dicarboxamide (“Compound-5”) relative to vehicle-treated controls (“C”).
(§2) Briefly, the hearts were dissected out from 2-3 day-old mice, atria and aorta were removed, and the hearts were transferred into sterile buffer A (137 mM NaCl, 5.36 mM KCl, 0.81 mM MgSO4, 5.55 mM dextrose, 0.44 mM KH2PO4, 0.34 mM Na2HPO4, 20 mM HEPES, 100 U/ml penicillin, 100 microg/ml streptomycin, pH 7.4). […]

B6 mice with AAC [3] = assay: Chronic pressure overload (AAC) model, 7 days of treatment: cardiac p-Srsf1 and echocardiography; format: in vivo, mouse; conditions: 5 mg/kg/d for 7 days
Protocol: A, The GRK2-mediated phosphorylation of Srsf1 was determined by immunoblot in cardiac lysates prepared from hearts of non-transgenic B6 mice after treatment (i.p.) for 5 h with 10 mg/kg of 1-(1,3-benzodioxol-5-yl)-4-(cyclopropane-carbonyl)-3-hydroxy-2-phenyl-2H-pyrrol-5-one (“Compound-1”), 4-(1,3-benzodioxol-5-yl)pyrimidine (“Compound-4”), 1-(1,3-benzodioxol-5-ylmethyl)-5-(4-fluorophenyl)-2-methyl-pyrrole-3-carboxamide (“Compound-2”), or (4R)-N3-(1,3-benzodioxol-5-ylmethyl)-N4-[[3-(trifluoromethyl)phenyl]-methyl]pyrrolidine-3,4-dicarboxamide (“Compound-5”) relative to vehicle-treated B6 controls (“con”). […] B, Left panel: The AAC-induced cardiac p-Srsf1 content was determined in cardiac lysates from B6 mice with AAC after treatment for 7 days with 5 mg/kg/d of 1-(1,3-benzodioxol-5-yl)-4-(cyclopropane-carbonyl)-3-hydroxy-2-phenyl-2H-pyrrol-5-one (“Compound-1”) or (4R)-N3-(1,3-benzodioxol-5-ylmethyl)-N4-[[3-(trifluoromethyl)phenyl]-methyl]pyrrolidine-3,4-dicarboxamide (“Compound-5”) relative to vehicle-treated B6 controls with AAC (“AAC-con”). […] Right and lower panels: Cardiac function parameters were determined by echocardiography in B6 mice with AAC after treatment for 7 days with “Compound-1” or “Compound-5” relative to vehicle-treated B6 controls with AAC ((±s.d.; n=5 (A) and n=3 (B); Dunnett's Multiple Comparison Test vs. con (A) or AAC-con (B)). […]

[4] = tested on: GRK2-mediated phosphorylation of SRSF1; assay: Immunoblot of SRSF1 phosphorylation (pSRSF1) in HEK (human embryonic kidney) cells; format: cell-based; conditions: 10 microM, 60 h, relative to vehicle
Protocol: as §1, §2

SMILES | cardiovascular disease-induced ageing (grey coloring of the hair) (B6 mice with AAC [1]; 2 months (8 weeks) of treatment, AAC mice) | AAC-induced cardiac hypertrophy (histology) (B6 mice with AAC [1]; 3 months AAC, 2 months oral treatment) | left ventricular ejection fraction (B6 mice with AAC [1]; 3 months AAC) [%] | SRSF1/Srsf1 phosphorylation in isolated Tg-SRSF1 cardiomyocytes [2] | cardiac performance after chronic pressure overload imposed by AAC (B6 mice with AAC [3]; echocardiography) | chronic pressure overload-induced cardiac p-Srsf1 content (B6 mice with AAC [3]; relative to vehicle) | SRSF1 phosphorylation in human kidney cells [4]
O=C(C1=C(O)C(c2ccccc2)N(c2ccc3c(c2)OCO3)C1=O)C1CC1 (stereo not drawn) [Compound-1, 1-(1,3-benzodioxol-5-yl)-4-(cyclopropane-carbonyl)-3-hydroxy-2-phenyl-2H-pyrrol-5-one] | substantially retarded | retards; also recorded: decrease | 41.4±4.8 | decreased | improved | retarded | 
c1cc(-c2ccc3c(c2)OCO3)ncn1 [Compound-4, 4-(1,3-benzodioxol-5-yl)pyrimidine] |  |  | 38.2±3.7 | decreased |  |  | inhibited
